Here are results for 33 compounds from patent US12491185B2, “Inhibitors of mPTP” (NRG Therapeutics Ltd, priority 2023, dated 2025).

Assay [1] relates to mPTP. The assay can be described thus: mPTP activity assay in isolated rat brain mitochondria. Format: biochemical. The conditions noted are these: fluorescence at 10 min timepoint. The method, boiled down: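 Fresh brain mitochondria from female Sprague Dawley rats, digitonin-washed, in pH 7.4 mannitol/MOPS/KCl buffer with pyruvate, malate, ADP, oligomycin A and 2 μM Fluo5N. Preincubated with compounds 10 min at RT. Fluo5N fluorescence then read every 3 sec for 10 min on FLIPR Tetra.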

The subject of assay [2] is mPTP. The assay is described as follows: mPTP activity (Ca2+ retention) assay in isolated rat liver mitochondria. Format: biochemical. To be noted: examples tested by different contract research organisations, believed comparable. The gist of the method: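 pIC50 was taken from Fluo5N fluorescence at 10 min after a 75 μM CaCl2 bolus, scaled between DMSO (0%) and 5 μM cyclosporin A (100%). Compounds, ten half-log concentrations from 30 μM to 1 nM final, sat 10 min at RT with fresh female Sprague Dawley rat liver mitochondria energized by succinate plus rotenone.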

In the case of `O=C(NCC1(Cc2ccccn2)CCC1)c1cncc(=O)[nH]1` [Example 62, 6-oxo-N-((1-(pyridin-2-ylmethyl)cyclobutyl)methyl)-1,6-dihydropyrazine-2-carboxamide], the “mPTP Rat brain pIC50” value in the assay on mPTP [1] was found to be 5.16. For the same compound, in the assay with mPTP [2], the “mPTP Rat liver pIC50” value was found to be 4.85.

As to `C[C@](CNC(=O)c1ncc(Cl)c(=O)[nH]1)(Cc1ccc(F)cc1F)C1CC1` [Example 260, 5-chloro-N-[(2S)-2-cyclopropyl-3-(2,4-difluorophenyl)-2-methylpropyl]-4-oxo-3H-pyrimidine-2-carboxamide], the “mPTP Rat brain pIC50” value with mPTP [1] is on record as 7.50. Besides, the “mPTP Rat liver pIC50” value with mPTP [2] came to 5.78.

For `Cn1nc(C(=O)NC[C@H](Cc2ccc(F)cc2Cl)C2CC2)[nH]c1=O` [Example 241, (R)-N-(3-(2-chloro-4-fluorophenyl)-2-cyclopropylpropyl)-1-methyl-5-oxo-4,5-dihydro-1H-1,2,4-triazole-3-carboxamide], the “mPTP Rat brain pIC50” value with mPTP [1] is 7.73. For the same compound, in the assay on mPTP [2], the “mPTP Rat liver pIC50” value was determined as 6.81.

For `Cn1nc(C(=O)NCC(C)(CO)Cc2ccccc2)[nH]c1=O` (stereo not drawn) [Example 41, N-(2-benzyl-3-hydroxy-2-methylpropyl)-1-methyl-5-oxo-4,5-dihydro-1H-1,2,4-triazole-3-carboxamide], in the assay with mPTP [1], the “mPTP Rat brain pIC50” value was determined as 6.38. The “mPTP Rat liver pIC50” value in the assay on mPTP [2] was 5.25.

For `COC(c1ccccc1)C1(CNC(=O)c2nn(C)c(=O)[nH]2)CCC1` (stereo not drawn) [Example 28, N-((1-(methoxy(phenyl)methyl)cyclobutyl)methyl)-1-methyl-5-oxo-4,5-dihydro-1H-1,2,4-triazole-3-carboxamide], the “mPTP Rat brain pIC50” value with mPTP [1] is given as 6.73. The “mPTP Rat liver pIC50” value in the assay with mPTP [2] was 5.96.

In the case of `O=C(NCC1(Cc2cccc(F)c2)CCC1)c1cncc(O)n1` [Example 49, N-((1-(3-fluorobenzyl)cyclobutyl)methyl)-6-hydroxypyrazine-2-carboxamide], in the assay on mPTP [1], the “mPTP Rat brain pIC50” value is listed as 7.44. Further, in the assay on mPTP [2], the “mPTP Rat liver pIC50” value amounted to 4.56.

On to `Cn1nc(C(=O)NCC2(Cc3cc(F)c(F)cc3F)CCC2)[nH]c1=O` [Example 157, 1-methyl-5-oxo-N-((1-(2,4,5-trifluorobenzyl)cyclobutyl)methyl)-4,5-dihydro-1H-1,2,4-triazole-3-carboxamide], for which, in the assay on mPTP [1], the “mPTP Rat brain pIC50” value came out at 7.81. The “mPTP Rat liver pIC50” value in the assay on mPTP [2] was 7.03.

In the case of `CCC(CNC(=O)c1nn(C)c(=O)[nH]1)Cc1ccccc1` (stereo not drawn) [Example 40, N-(2-benzylbutyl)-1-methyl-5-oxo-4,5-dihydro-1H-1,2,4-triazole-3-carboxamide], in the assay on mPTP [1], the “mPTP Rat brain pIC50” value turned out to be 7.50. For the same compound, in the assay with mPTP [2], the “mPTP Rat liver pIC50” value is reported as 6.29.

For the compound `Cn1nc(C(=O)NCC2(Cc3ccc(F)cc3F)CC23CC3)[nH]c1=O` (single isomer, unassigned) [Example 231, N-((1-(2,4-difluorobenzyl)spiro[2.2]pentan-1-yl)methyl)-1-methyl-5-oxo-4,5-dihydro-1H-1,2,4-triazole-3-carboxamide], in the assay on mPTP [1], the “mPTP Rat brain pIC50” value was 7.37. Moreover, in the assay on mPTP [2], the “mPTP Rat liver pIC50” value was 6.61.

Take `Cc1cnc(C(=O)NCC(C)(Cc2ccc(F)cc2)C2CC2)[nH]c1=O` (single isomer, unassigned) [Example 267]: in the assay with mPTP [1], the “mPTP Rat brain pIC50” value turned out to be 7.32. Besides, the “mPTP Rat liver pIC50” value in the assay with mPTP [2] is reported as 6.55.

Turning to `CC[C@@H](CNC(=O)c1nn(C)c(=O)[nH]1)Cc1ccccc1` (single isomer, unassigned) [Example 54a], the “mPTP Rat brain pIC50” value in the assay on mPTP [1] was 5.68. Also, the “mPTP Rat liver pIC50” value with mPTP [2] came to 5.04.

Take `Cn1nc(C(=O)NC[C@H](Cc2cc(F)ccc2F)C2CC2)[nH]c1=O` [Example 159]: the “mPTP Rat brain pIC50” value in the assay on mPTP [1] amounted to 7.77. Besides, in the assay with mPTP [2], the “mPTP Rat liver pIC50” value was determined as 6.97.

On to `Cc1cnc(C(=O)NCC(C)(Cc2ccc(F)cc2)C2CC2)[nH]c1=O` (single isomer, unassigned) [Example 268], for which, in the assay with mPTP [1], the “mPTP Rat brain pIC50” value was 7.02. Moreover, the “mPTP Rat liver pIC50” value in the assay on mPTP [2] was 6.04.

`CCC(NC(=O)c1nn(C)c(=O)[nH]1)C(C)(C)Cc1ccccc1` (stereo not drawn) [Example 34, N-(2,2-dimethyl-1-phenylpentan-3-yl)-1-methyl-5-oxo-4,5-dihydro-1H-1,2,4-triazole-3-carboxamide]: the “mPTP Rat brain pIC50” value in the assay on mPTP [1] was determined as 7.32. Further, the “mPTP Rat liver pIC50” value with mPTP [2] amounted to 5.82.

Take `CC(CNC(=O)c1cc(O)no1)(Cc1ccc(F)cc1F)C1CC1` (single isomer, unassigned) [Example 269]: the “mPTP Rat brain pIC50” value with mPTP [1] came out at 7.73. In addition, the “mPTP Rat liver pIC50” value in the assay with mPTP [2] was 6.78.

Take `CC(C)(CNC(=O)c1ccc(=O)[nH]n1)Cc1ccccc1` [Example 56]: the “mPTP Rat brain pIC50” value in the assay on mPTP [1] is 6.73. For the same compound, the “mPTP Rat liver pIC50” value with mPTP [2] amounted to 5.76.

As to `Cc1cnc(C(=O)NCC2(Cc3ccccc3)CCC2)[nH]c1=O` [Example 9, N-((1-benzylcyclobutyl)methyl)-5-methyl-6-oxo-1,6-dihydropyrimidine-2-carboxamide], the “mPTP Rat brain pIC50” value with mPTP [1] is recorded as 7.33. For the same compound, in the assay with mPTP [2], the “mPTP Rat liver pIC50” value amounted to 6.14.

`CCC(C)(CNC(=O)c1nn(C)c(=O)[nH]1)Cc1ccccc1` (stereo not drawn) [Example 44, N-(2-benzyl-2-methylbutyl)-1-methyl-5-oxo-4,5-dihydro-1H-1,2,4-triazole-3-carboxamide]: the “mPTP Rat brain pIC50” value with mPTP [1] stood at 7.41. Besides, the “mPTP Rat liver pIC50” value in the assay on mPTP [2] is reported as 6.23.

Turning to `O=C(NC[C@H](Cc1ccc(F)cc1F)C1CC1)c1nncc(=O)[nH]1` [Example 195, (R)-N-(2-cyclopropyl-3-(2,4-difluorophenyl)propyl)-5-oxo-4,5-dihydro-1,2,4-triazine-3-carboxamide], the “mPTP Rat brain pIC50” value with mPTP [1] is reported as 7.43. In the assay on mPTP [2], the “mPTP Rat liver pIC50” value is 6.37.

As for `Cn1nc(C(=O)NCC(C)(C)Cc2ccccc2)[nH]c1=O` [Example 31, N-(2,2-dimethyl-3-phenylpropyl)-1-methyl-5-oxo-4,5-dihydro-1H-1,2,4-triazole-3-carboxamide], the “mPTP Rat brain pIC50” value in the assay with mPTP [1] was determined as 7.37. Moreover, the “mPTP Rat liver pIC50” value with mPTP [2] is recorded as 6.48.

Consider `CC(c1ccc(F)cc1F)[C@@H](CNC(=O)c1nccc(=O)[nH]1)C1CC1` (single isomer, unassigned) [Example 226], for which the “mPTP Rat brain pIC50” value in the assay with mPTP [1] worked out at 4.82. Moreover, the “mPTP Rat liver pIC50” value in the assay with mPTP [2] was determined as 4.52.

`O=C(NCC1(Cc2ccc(F)cc2F)CCC1)c1nccc(=O)[nH]1` [Example 160]: in the assay on mPTP [1], the “mPTP Rat brain pIC50” value is 7.7. Besides, the “mPTP Rat liver pIC50” value with mPTP [2] was 6.28.

Consider `O=C(NCC1(Cc2ccccc2F)CCC1)c1cncc(O)n1` [Example 13, N-((1-(2-fluorobenzyl)cyclobutyl)methyl)-6-hydroxypyrazine-2-carboxamide], for which, in the assay with mPTP [1], the “mPTP Rat brain pIC50” value was 7.74. Further, the “mPTP Rat liver pIC50” value with mPTP [2] was 5.33.

For `CC(NC(=O)c1nn(C)c(=O)[nH]1)C1(Cc2ccccc2)CCC1` (single isomer, unassigned) [Example 24B, N-(1-(1-benzylcyclobutyl)ethyl)-1-methyl-5-oxo-4,5-dihydro-1H-1,2,4-triazole-3-carboxamide], in the assay with mPTP [1], the “mPTP Rat brain pIC50” value amounted to 5.49. Also, in the assay on mPTP [2], the “mPTP Rat liver pIC50” value is given as less than 4.52.

`CC(c1ccc(F)cc1F)[C@@H](CNC(=O)c1nccc(=O)[nH]1)C1CC1` (single isomer, unassigned) [Example 225]: the “mPTP Rat brain pIC50” value in the assay with mPTP [1] was determined as 6.66. For the same compound, in the assay with mPTP [2], the “mPTP Rat liver pIC50” value is 5.47.

In the case of `CCn1nc(C(=O)NCC2(Cc3ccccc3)CCC2)[nH]c1=O` [Example 14, N-((1-benzylcyclobutyl)methyl)-1-ethyl-5-oxo-4,5-dihydro-1H-1,2,4-triazole-3-carboxamide], in the assay on mPTP [1], the “mPTP Rat brain pIC50” value is reported as 6.94. Further, the “mPTP Rat liver pIC50” value in the assay on mPTP [2] worked out at 5.63.

In the case of `Cc1ccccc1CC1(CNC(=O)c2cncc(=O)[nH]2)CCC1` [Example 19, N-((1-(2-methylbenzyl)cyclobutyl)methyl)-6-oxo-1,6-dihydropyrazine-2-carboxamide], in the assay on mPTP [1], the “mPTP Rat brain pIC50” value is on record as 7.35. In addition, the “mPTP Rat liver pIC50” value in the assay on mPTP [2] came out at 5.41.

For the compound `Cn1nc(C(=O)NCC(C)(Cc2ccc(F)cc2F)C2CC2)[nH]c1=O` (single isomer, unassigned) [Example 240, N-(2-cyclopropyl-3-(2,4-difluorophenyl)-2-methylpropyl)-1-methyl-5-oxo-4,5-dihydro-1H-1,2,4-triazole-3-carboxamide], the “mPTP Rat brain pIC50” value in the assay on mPTP [1] is 7.61. Further, the “mPTP Rat liver pIC50” value with mPTP [2] was determined as 6.91.

As for `O=C(NCC1(Cc2ccc(F)c(F)c2)CCC1)c1nccc(=O)[nH]1` [Example 133], the “mPTP Rat brain pIC50” value in the assay on mPTP [1] is 7.5. The “mPTP Rat liver pIC50” value in the assay with mPTP [2] was found to be 6.51.

As to `Cc1cc(F)ccc1C[C@@H](CNC(=O)c1nn(C)c(=O)[nH]1)C1CC1` [Example 131], the “mPTP Rat brain pIC50” value in the assay with mPTP [1] is on record as 7.85. Moreover, the “mPTP Rat liver pIC50” value in the assay with mPTP [2] is recorded as 7.01.

As to `Cn1nc(C(=O)NCC2(Cc3ccc(F)cc3F)CC23CC3)[nH]c1=O` (single isomer, unassigned) [Example 232, N-((1-(2,4-difluorobenzyl)spiro[2.2]pentan-1-yl)methyl)-1-methyl-5-oxo-4,5-dihydro-1H-1,2,4-triazole-3-carboxamide], in the assay with mPTP [1], the “mPTP Rat brain pIC50” value was 7.56. In the assay on mPTP [2], the “mPTP Rat liver pIC50” value is given as 6.65.

As to `CC(CNC(=O)c1cc(O)no1)(Cc1ccc(F)cc1)C1CC1` (single isomer, unassigned) [Example 272], the “mPTP Rat brain pIC50” value in the assay on mPTP [1] is listed as 6.35. Further, the “mPTP Rat liver pIC50” value in the assay on mPTP [2] worked out at 4.52.

In the case of `CC(CNC(=O)c1ncc(Cl)c(=O)[nH]1)(Cc1ccc(F)cc1)C1CC1` (single isomer, unassigned) [Example 263, 5-Chloro-N-[2-cyclopropyl-3-(4-fluorophenyl)-2-methylpropyl]-4-oxo-3H-pyrimidine-2-carboxamide], the “mPTP Rat brain pIC50” value in the assay with mPTP [1] was 8.09. In addition, the “mPTP Rat liver pIC50” value in the assay with mPTP [2] is given as 6.54.
